pIC50: −log10 of the molar value.
Assays:
[1] = Synergistic antiproliferative activity against MYCN amplified human Neuroblastoma cell in presence of OTX-015; format: functional, cell-based
[2] = Synergistic antiproliferative activity against MYCN amplified human Neuroblastoma cell in presence of JQ1
[3] = tested on: IMR-32; experiment: Antiproliferative activity against human IMR-32 cells assessed as cell growth inhibition; format: functional, cell-based

Cc1sc2c(c1C)C(c1ccc(Cl)cc1)=N[C@@H](CC(=O)NC(C)(C)C)c1nnc(C)n1-2
pIC50 [1]: 5.83

Cc1sc2c(c1C)C(c1ccc(Cl)cc1)=N[C@@H](CC(=O)Nc1ccc(O)cc1)c1nnc(C)n1-2 [BIRABRESIB]
pIC50 [2]: 6.08

O=C(c1ccc(F)c(F)c1Nc1ccc(I)cc1F)N1CC(O)([C@@H]2CCCCN2)C1 [COBIMETINIB]
pIC50 [3]: 7.15

Reference: ChEMBL document CHEMBL5230119, “Development of differentiation modulators and targeted agents for treating neuroblastoma” (Eur J Med Chem, 2020)
